According to ChEMBL document CHEMBL3272125, “Antiprotozoal thiazoles. 2. 2-(5-Nitro-2-furyl-, thiazolyl-, and 1-methylimidazolyl-)thiazoles” (J Med Chem, 1977):

Assays:
Trypanosoma cruzi [1] = experiment: Antiprotozoal activity against Trypanosoma cruzi BH infected in CFW mouse assessed as increase in host mean survival time at 100 mg/kg, ip administered daily for 5 days starting 4 hrs post-parasite infection (reference value: 14 +/- 1 days); format: functional; settings: route intraperitoneal
Trypanosoma cruzi [2] = experiment: Antiprotozoal activity against Trypanosoma cruzi BH infected in CFW mouse assessed as increase in host mean survival time at 50 mg/kg, ip administered daily for 5 days starting 4 hrs post-parasite infection (reference value: 14 +/- 1 days); format: functional; settings: route intraperitoneal
Trypanosoma cruzi [3] = experiment: Antiprotozoal activity against Trypanosoma cruzi BH infected in CFW mouse assessed as increase in host mean survival time at 25 mg/kg, ip administered daily for 5 days starting 4 hrs post-parasite infection (reference value: 14 +/- 1 days); format: functional; settings: route intraperitoneal
Trypanosoma cruzi [4] = experiment: Antiprotozoal activity against Trypanosoma cruzi BH infected in CFW mouse assessed as increase in host mean survival time at 10 mg/kg, ip administered daily for 5 days starting 4 hrs post-parasite infection (reference value: 14 +/- 1 days); format: functional; settings: route intraperitoneal
Trypanosoma cruzi [5] = experiment: Antiprotozoal activity against Trypanosoma cruzi BH infected in CFW mouse assessed as increase in host mean survival time at 5 mg/kg, ip administered daily for 5 days starting 4 hrs post-parasite infection (reference value: 14 +/- 1 days); format: functional; settings: route intraperitoneal
Trypanosoma cruzi [6] = experiment: Antiprotozoal activity against Trypanosoma cruzi BH infected in CFW mouse assessed as increase in host mean survival time at 200 mg/kg, po administered daily for 5 days starting 4 hrs post-parasite infection (reference value: 14 +/- 1 days); format: functional
Trypanosoma cruzi [7] = experiment: Antiprotozoal activity against Trypanosoma cruzi BH infected in CFW mouse assessed as increase in host mean survival time at 100 mg/kg, po administered daily for 5 days starting 4 hrs post-parasite infection (reference value: 14 +/- 1 days); format: functional
Trypanosoma cruzi [8] = experiment: Antiprotozoal activity against Trypanosoma cruzi BH infected in CFW mouse assessed as increase in host mean survival time at 50 mg/kg, po administered daily for 5 days starting 4 hrs post-parasite infection (reference value: 14 +/- 1 days); format: functional
Trypanosoma cruzi [9] = experiment: Antiprotozoal activity against Trypanosoma cruzi BH infected in CFW mouse assessed as increase in host mean survival time at 25 mg/kg, po administered daily for 5 days starting 4 hrs post-parasite infection (reference value: 14 +/- 1 days); format: functional
[10] = Acute toxicity in ip dosed CFW mouse administered daily for 5 days; format: organism-based; settings: in vivo
[11] = Acute toxicity in po dosed CFW mouse administered daily for 5 days; format: organism-based; settings: in vivo
Trypanosoma cruzi [12] = experiment: Antiprotozoal activity against Trypanosoma cruzi BH infected in CFW mouse assessed as increase in host mean survival time at 10 mg/kg, po administered daily for 5 days starting 4 hrs post-parasite infection (reference value: 14 +/- 1 days); format: functional
Trypanosoma cruzi [13] = experiment: Antiprotozoal activity against Trypanosoma cruzi BH infected in CFW mouse assessed as increase in host mean survival time at 5 mg/kg, po administered daily for 5 days starting 4 hrs post-parasite infection (reference value: 14 +/- 1 days); format: functional
Trypanosoma cruzi [14] = experiment: Antiprotozoal activity against Trypanosoma cruzi Y infected in CFW mouse assessed as increase in host mean survival time at 25 mg/kg, po administered daily for 10 days starting 4 hrs post-parasite infection; format: functional
Trypanosoma cruzi [15] = experiment: Antiprotozoal activity against Trypanosoma cruzi Y infected in CFW mouse assessed as increase in host mean survival time at 10 mg/kg, po administered daily for 10 days starting 4 hrs post-parasite infection; format: functional
Trypanosoma cruzi [16] = experiment: Antiprotozoal activity against Trypanosoma cruzi Y infected in CFW mouse assessed as increase in host mean survival time at 5 mg/kg, po administered daily for 10 days starting 4 hrs post-parasite infection; format: functional
Trypanosoma cruzi [17] = experiment: Antiprotozoal activity against Trypanosoma cruzi Peru infected in CFW mouse assessed as increase in host mean survival time at 25 mg/kg, po administered daily for 10 days starting 4 hrs post-parasite infection; format: functional
Trypanosoma cruzi [18] = experiment: Antiprotozoal activity against Trypanosoma cruzi Peru infected in CFW mouse assessed as increase in host mean survival time at 10 mg/kg, po administered daily for 10 days starting 4 hrs post-parasite infection; format: functional
Trypanosoma cruzi [19] = experiment: Antiprotozoal activity against Trypanosoma cruzi Peru infected in CFW mouse assessed as increase in host mean survival time at 5 mg/kg, po administered daily for 10 days starting 4 hrs post-parasite infection; format: functional
Trypanosoma cruzi [20] = experiment: Antiprotozoal activity against high myocardial tissue infiltration leishmanial form of Trypanosoma cruzi BHC/10 infected in CFW mouse assessed as increase in host mean survival time at 25 mg/kg, po administered daily for 10 days starting 4 hrs post-parasite infection; format: functional
Trypanosoma cruzi [21] = experiment: Antiprotozoal activity against high myocardial tissue infiltration leishmanial form of Trypanosoma cruzi BHC/10 infected in CFW mouse assessed as increase in host mean survival time at 10 mg/kg, po administered daily for 10 days starting 4 hrs post-parasite infection; format: functional
Trypanosoma cruzi [22] = experiment: Antiprotozoal activity against high myocardial tissue infiltration leishmanial form of Trypanosoma cruzi BHC/10 infected in CFW mouse assessed as increase in host mean survival time at 5 mg/kg, po administered daily for 10 days starting 4 hrs post-parasite infection; format: functional

SMILES | MST (Trypanosoma cruzi [1]) [days] | MST (Trypanosoma cruzi [2]) [days] | MST (Trypanosoma cruzi [3]) [days] | MST (Trypanosoma cruzi [4]) [days] | MST (Trypanosoma cruzi [5]) [days] | MST (Trypanosoma cruzi [6]) [days] | MST (Trypanosoma cruzi [7]) [days] | MST (Trypanosoma cruzi [8]) [days] | MST (Trypanosoma cruzi [9]) [days] | LD50 at 120 h [10] [mg/kg] | LD50 at 120 h [11] [mg/kg] | MST (Trypanosoma cruzi [12]) [days] | MST (Trypanosoma cruzi [13]) [days] | other results
O=[N+]([O-])c1ccc(-c2nc(/C=N/N3CCCCC3)cs2)o1 | 60 | 60 | 42 | 3 | 0 | 32 | 39 | 8 | 0 | > 800 | > 1600 | – | – | –
O=[N+]([O-])c1ccc(-c2nc(/C=N/N3CCCCCC3)cs2)o1 | 39 | 7 | 4 | – | – | 2 | 0 | – | – | > 800 | > 1600 | – | – | –
O=[N+]([O-])c1ccc(-c2nc(/C=N/N3CCOCC3)cs2)o1 | 60 | 60 | 60 | 27 | 0 | 60 | 60 | 41 | 19.5 | > 800 | > 1600 | 0 | 0 | –
O=[N+]([O-])c1ccc(-c2nc(/C=N/N3CCSCC3)cs2)o1 | 60 | 60 | 18 | 0 | 0 | 18 | 4 | 0 | – | > 800 | > 1600 | – | – | –
O=[N+]([O-])c1ccc(-c2nc(/C=N/N3CCS(=O)(=O)CC3)cs2)o1 | 60 | 44 | 18.5 | 5 | 0 | 5 | 3 | 7 | 6 | > 800 | > 1600 | 0 | – | –
O=[N+]([O-])c1cnc(-c2nc(/C=N/N3CCCCC3)cs2)s1 | 0 | – | – | – | – | 0 | – | – | – | > 800 | > 1600 | – | – | –
O=[N+]([O-])c1cnc(-c2nc(/C=N/N3CCOCC3)cs2)s1 | 4 | – | – | – | – | 0 | – | – | – | > 800 | > 1600 | – | – | –
O=[N+]([O-])c1cnc(-c2nc(/C=N/N3CCSCC3)cs2)s1 | 4 | 3 | 0 | – | – | 1 | 0 | – | – | > 800 | > 1600 | – | – | –
Cn1c([N+](=O)[O-])cnc1-c1nc(/C=N/N2CCOCC2)cs1 | 60 | 7 | 4 | 0 | – | – | – | 0 | 0 | > 800 | > 1600 | – | – | –
Cn1c([N+](=O)[O-])cnc1-c1nc(/C=N/N2CCS(=O)(=O)CC2)cs1 | 60 | 60 | 60 | 60 | 18.5 | 60 | 60 | 60 | 60 | > 800 | > 1600 | 14 | 15 | MST (Trypanosoma cruzi [14]): 60 days; MST (Trypanosoma cruzi [15]): 60 days; MST (Trypanosoma cruzi [16]): 37 days; MST (Trypanosoma cruzi [17]): 60 days; MST (Trypanosoma cruzi [18]): 60 days; MST (Trypanosoma cruzi [19]): 35 days; MST (Trypanosoma cruzi [20]): 22 days; MST (Trypanosoma cruzi [21]): 12 days; MST (Trypanosoma cruzi [22]): 4 days
O=[N+]([O-])c1ccc(-c2nc(/C=N/N3CCOCC3)cs2)s1 | 60 | 27 | 12 | 0 | 0 | 60 | 0 | 0 | 0 | > 800 | > 1600 | 0 | 0 | –
CC1CS(=O)(=O)CCN1/N=C/c1ccc([N+](=O)[O-])o1 (stereo unspecified) [NIFURTIMOX] | 60 | 60 | 60 | 60 | 2.5 | 60 | 60 | 60 | 60 | – | – | 4 | 0 | MST (Trypanosoma cruzi [14]): 40 days; MST (Trypanosoma cruzi [15]): 8 days; MST (Trypanosoma cruzi [16]): 0 days; MST (Trypanosoma cruzi [17]): 60 days; MST (Trypanosoma cruzi [18]): 60 days; MST (Trypanosoma cruzi [19]): 0 days; MST (Trypanosoma cruzi [20]): 6.5 days; MST (Trypanosoma cruzi [21]): 5.5 days; MST (Trypanosoma cruzi [22]): 3 days
